Our source for the EC50, AC50 and IC50 values is ChEMBL document CHEMBL1201862, “PubChem BioAssay data set” (2004).

Each structure is given as a SMILES string. The source made the active and inactive calls.

Assay [1] deals with Sphingosine 1-phosphate receptor 2 (Homo sapiens, UniProt O95136). The experiment in a line: Dose Response Cell Based Assay for Agonists of the S1P2 Receptor. [Related pubchem assays: 729, 736, 843 ]. Format: functional.
In assay [2] the target is Paired box protein Pax-8 (Homo sapiens, UniProt Q06710). In words: PAX8 transcriptional activity inhibition in RMG-I – RMG-I cells, luciferase, cherry-pick, dose response (AID 687027).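 Note: luciferase reporter driven by Pax8 target thyroperoxidase promoter measured by SteadyGlo luminescence.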 In kind it is functional, cell-based.
Assay [3] can be described thus: A2780 cell killing – plate reader, dry powder samples, cytotoxicity control, dose response (AID 743046). Format: functional, cell-based.
A short description of assay [4]: OVCAR-3 cell viability loss – plate reader, dry powder samples, PAX8 inhibitor project, dose response (AID 743044). In kind it is functional, cell-based.
Assay [5] can be described thus: IGROV1 cell killing – plate reader, dry powder samples, PAX8 inhibitor project, dose response (AID 743043). In kind it is functional, cell-based. To be noted: IGROV-1.
Assay [6] in a line: toxicity toward immortalized ovarian surface epithelium – cell-based, plate reader, dry powder samples, cytotoxicity control for PAX8 inhibitor project, dose response (AID 743045). Format: functional.
A short description of assay [7]: Late-stage results from the probe development effort to identify antagonists of arginine vasopressin receptor 1a (AVPR1a): fluorescence-based cell-based dose response OXTR inhibition counterscreen assay. In kind it is functional.
The target in assay [8] is Vasopressin V2 receptor (Homo sapiens, UniProt P30518). The experiment in a line: Late-stage results from the probe development effort to identify antagonists of arginine vasopressin receptor 1a (AVPR1a): fluorescence-based cell-based dose response AVPR2 inhibition counterscreen assay. In kind it is functional. On the technique in general: The purpose of a counterscreen is to sort out artefacts and off-target activity.
Vasopressin V2 receptor, sequence (P30518 whole entry): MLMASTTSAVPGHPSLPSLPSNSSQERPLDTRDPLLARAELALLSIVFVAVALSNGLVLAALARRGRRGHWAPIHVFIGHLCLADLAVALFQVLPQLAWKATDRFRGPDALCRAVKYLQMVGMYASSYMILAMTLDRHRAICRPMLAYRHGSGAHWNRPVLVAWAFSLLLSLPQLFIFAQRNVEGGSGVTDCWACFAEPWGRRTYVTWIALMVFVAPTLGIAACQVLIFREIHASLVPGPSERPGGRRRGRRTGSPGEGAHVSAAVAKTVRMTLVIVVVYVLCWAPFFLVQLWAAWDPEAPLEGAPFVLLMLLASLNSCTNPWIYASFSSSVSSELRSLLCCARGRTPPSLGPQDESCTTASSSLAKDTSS

Assay [9] concerns the target Vasopressin V1b receptor (Homo sapiens, UniProt P47901). The experiment in a line: Late-stage results from the probe development effort to identify antagonists of arginine vasopressin receptor 1a (AVPR1a): fluorescence-based cell-based dose response AVPR1b inhibition counterscreen assay. Format: functional.
Assay [10] is described as follows: Late-stage results from the probe development effort to identify antagonists of arginine vasopressin receptor 1a (AVPR1a): fluorescence-based cell-based dose response AVPR1a inhibition assay. Format: functional.
Assay [11] is described as follows: cells. Format: functional, cell-based. To be noted: INS-1E.
Assay [12] is described as follows: IC50 of insulin release inhibition, rat insulinoma INS-1E line, 5 mM glucose, cell-based (AID 1117331). Format: functional.
Assay [13] can be described thus: cells.
Assay [14] deals with T1, Oxysterols receptor LXR-beta (Homo sapiens, UniProt P55055).
T1 sequence (P55055 whole entry): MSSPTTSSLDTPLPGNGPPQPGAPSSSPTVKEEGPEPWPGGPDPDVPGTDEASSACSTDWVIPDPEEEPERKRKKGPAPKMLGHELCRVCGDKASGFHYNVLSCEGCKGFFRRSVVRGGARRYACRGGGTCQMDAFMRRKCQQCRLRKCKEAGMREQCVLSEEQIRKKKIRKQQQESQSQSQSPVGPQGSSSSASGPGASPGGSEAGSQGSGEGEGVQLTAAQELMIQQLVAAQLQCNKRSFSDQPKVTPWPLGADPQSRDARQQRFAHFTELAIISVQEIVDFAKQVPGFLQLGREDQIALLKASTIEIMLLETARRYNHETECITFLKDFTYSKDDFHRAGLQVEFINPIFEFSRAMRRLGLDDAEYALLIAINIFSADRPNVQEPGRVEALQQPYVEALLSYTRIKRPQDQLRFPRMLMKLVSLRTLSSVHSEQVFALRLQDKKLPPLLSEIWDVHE
Format: functional, cell-based.

The target in assay [15] is Large T antigen (Simian virus 40, UniProt P03070). Format: functional, Betapolyomavirus macacae.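 Note: Confirmatory-stage PubChem screen for compounds that inhibit SV40 T antigen.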
Large T antigen, sequence (P03070 whole entry): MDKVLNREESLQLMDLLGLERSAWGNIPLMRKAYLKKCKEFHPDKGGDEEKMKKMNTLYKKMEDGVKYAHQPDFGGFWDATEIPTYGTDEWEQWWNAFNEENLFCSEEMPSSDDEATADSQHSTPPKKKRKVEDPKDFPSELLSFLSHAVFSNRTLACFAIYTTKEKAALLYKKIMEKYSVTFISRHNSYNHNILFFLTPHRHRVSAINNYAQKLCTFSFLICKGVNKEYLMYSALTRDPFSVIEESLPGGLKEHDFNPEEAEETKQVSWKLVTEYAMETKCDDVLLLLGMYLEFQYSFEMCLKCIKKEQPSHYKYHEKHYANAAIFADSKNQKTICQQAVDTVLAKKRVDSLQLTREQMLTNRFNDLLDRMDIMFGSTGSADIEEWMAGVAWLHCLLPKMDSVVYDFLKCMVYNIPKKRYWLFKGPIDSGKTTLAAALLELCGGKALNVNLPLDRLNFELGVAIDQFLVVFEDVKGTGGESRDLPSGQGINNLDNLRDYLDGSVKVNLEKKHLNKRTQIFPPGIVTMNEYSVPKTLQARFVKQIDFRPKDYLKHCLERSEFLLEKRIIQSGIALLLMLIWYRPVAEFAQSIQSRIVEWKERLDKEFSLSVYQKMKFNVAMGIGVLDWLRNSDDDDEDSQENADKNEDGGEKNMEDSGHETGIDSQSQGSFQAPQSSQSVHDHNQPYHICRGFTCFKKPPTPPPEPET
Assay [16] deals with Bifunctional protein GlmU (Mycobacterium tuberculosis, UniProt P9WMN3). The experiment in a line: Inhibitors of Mycobacterial Glucosamine-1-phosphate acetyl transferase (GlmU). Secondary screen. Details: species or system Mycobacterium tuberculosis H37Rv.
Bifunctional protein GlmU, sequence (P9WMN3 whole entry): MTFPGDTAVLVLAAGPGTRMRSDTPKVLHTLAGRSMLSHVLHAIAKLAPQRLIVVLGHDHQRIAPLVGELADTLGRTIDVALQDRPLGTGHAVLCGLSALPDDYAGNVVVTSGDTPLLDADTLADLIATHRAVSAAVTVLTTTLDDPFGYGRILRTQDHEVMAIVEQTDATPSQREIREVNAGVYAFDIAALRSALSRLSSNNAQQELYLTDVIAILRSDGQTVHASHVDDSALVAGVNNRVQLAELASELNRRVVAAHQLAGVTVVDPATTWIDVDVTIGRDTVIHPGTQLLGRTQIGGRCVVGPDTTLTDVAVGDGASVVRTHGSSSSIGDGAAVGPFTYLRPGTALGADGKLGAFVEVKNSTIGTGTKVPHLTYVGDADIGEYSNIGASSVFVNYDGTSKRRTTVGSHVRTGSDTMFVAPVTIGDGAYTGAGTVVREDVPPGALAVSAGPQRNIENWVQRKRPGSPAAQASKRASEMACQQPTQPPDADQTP
Assay [17] concerns the target Beta-galactosidase (Escherichia coli, UniProt Q8VNN2). The experiment in a line: Dose response counterscreen for EBI2 assay utilizing the enzyme, b-galactosidase. In kind it is functional.
For assay [18], the target named is G-protein coupled receptor 183 (Homo sapiens, UniProt P32249). In words: SAR confirmation of small molecule antagonists of the EBI2 receptor via a luminescent beta-arrestin assa. Format: functional.
G-protein coupled receptor 183, sequence (P32249 whole entry): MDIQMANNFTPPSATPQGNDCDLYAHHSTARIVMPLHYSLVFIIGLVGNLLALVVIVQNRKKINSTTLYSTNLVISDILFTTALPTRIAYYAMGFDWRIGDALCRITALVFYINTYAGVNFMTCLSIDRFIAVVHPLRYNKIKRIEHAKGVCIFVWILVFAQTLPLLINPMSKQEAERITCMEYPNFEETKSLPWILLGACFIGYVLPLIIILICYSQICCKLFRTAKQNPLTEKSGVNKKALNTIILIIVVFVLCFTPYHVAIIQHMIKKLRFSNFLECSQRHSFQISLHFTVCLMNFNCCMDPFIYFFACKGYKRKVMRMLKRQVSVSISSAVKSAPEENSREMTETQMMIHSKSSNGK
The target in assay [19] is Metabotropic glutamate receptor 5 (Rattus norvegicus, UniProt P31424). In words: Identification of a glycine sulfonamide based non-MPEP site positive allosteric potentiator (PAM) of mGlu5 (calcium_assay). Format: functional.
Metabotropic glutamate receptor 5, sequence (P31424 whole entry): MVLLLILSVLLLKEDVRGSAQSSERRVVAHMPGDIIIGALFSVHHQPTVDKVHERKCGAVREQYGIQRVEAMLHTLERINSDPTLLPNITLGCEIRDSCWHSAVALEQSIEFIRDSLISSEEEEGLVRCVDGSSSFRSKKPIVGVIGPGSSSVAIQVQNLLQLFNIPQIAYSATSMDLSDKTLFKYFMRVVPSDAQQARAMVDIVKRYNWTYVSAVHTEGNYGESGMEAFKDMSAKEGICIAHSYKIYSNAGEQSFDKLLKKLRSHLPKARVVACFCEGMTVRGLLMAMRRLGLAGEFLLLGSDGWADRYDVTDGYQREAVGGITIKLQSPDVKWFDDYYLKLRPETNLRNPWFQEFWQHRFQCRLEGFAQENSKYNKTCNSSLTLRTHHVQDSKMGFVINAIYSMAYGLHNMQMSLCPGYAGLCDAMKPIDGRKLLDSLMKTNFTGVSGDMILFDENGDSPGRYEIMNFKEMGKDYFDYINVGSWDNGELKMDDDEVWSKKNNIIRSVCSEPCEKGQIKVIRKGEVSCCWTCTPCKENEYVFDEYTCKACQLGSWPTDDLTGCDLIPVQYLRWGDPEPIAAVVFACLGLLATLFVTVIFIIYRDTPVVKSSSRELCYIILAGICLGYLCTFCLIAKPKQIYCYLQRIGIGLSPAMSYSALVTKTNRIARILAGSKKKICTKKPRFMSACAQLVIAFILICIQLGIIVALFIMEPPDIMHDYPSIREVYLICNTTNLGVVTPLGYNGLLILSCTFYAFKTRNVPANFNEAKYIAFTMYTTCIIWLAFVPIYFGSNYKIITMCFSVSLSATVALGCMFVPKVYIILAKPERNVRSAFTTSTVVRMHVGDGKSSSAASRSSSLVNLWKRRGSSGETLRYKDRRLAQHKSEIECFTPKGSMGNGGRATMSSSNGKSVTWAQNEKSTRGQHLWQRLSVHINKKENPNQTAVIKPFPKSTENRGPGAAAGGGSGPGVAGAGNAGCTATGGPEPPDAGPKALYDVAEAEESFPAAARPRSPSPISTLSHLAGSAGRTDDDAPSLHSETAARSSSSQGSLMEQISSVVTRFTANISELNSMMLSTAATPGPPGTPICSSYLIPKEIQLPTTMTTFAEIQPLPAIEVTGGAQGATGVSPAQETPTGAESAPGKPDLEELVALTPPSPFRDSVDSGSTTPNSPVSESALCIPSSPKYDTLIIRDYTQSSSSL

Beta-galactosidase, sequence (Q8VNN2 whole entry): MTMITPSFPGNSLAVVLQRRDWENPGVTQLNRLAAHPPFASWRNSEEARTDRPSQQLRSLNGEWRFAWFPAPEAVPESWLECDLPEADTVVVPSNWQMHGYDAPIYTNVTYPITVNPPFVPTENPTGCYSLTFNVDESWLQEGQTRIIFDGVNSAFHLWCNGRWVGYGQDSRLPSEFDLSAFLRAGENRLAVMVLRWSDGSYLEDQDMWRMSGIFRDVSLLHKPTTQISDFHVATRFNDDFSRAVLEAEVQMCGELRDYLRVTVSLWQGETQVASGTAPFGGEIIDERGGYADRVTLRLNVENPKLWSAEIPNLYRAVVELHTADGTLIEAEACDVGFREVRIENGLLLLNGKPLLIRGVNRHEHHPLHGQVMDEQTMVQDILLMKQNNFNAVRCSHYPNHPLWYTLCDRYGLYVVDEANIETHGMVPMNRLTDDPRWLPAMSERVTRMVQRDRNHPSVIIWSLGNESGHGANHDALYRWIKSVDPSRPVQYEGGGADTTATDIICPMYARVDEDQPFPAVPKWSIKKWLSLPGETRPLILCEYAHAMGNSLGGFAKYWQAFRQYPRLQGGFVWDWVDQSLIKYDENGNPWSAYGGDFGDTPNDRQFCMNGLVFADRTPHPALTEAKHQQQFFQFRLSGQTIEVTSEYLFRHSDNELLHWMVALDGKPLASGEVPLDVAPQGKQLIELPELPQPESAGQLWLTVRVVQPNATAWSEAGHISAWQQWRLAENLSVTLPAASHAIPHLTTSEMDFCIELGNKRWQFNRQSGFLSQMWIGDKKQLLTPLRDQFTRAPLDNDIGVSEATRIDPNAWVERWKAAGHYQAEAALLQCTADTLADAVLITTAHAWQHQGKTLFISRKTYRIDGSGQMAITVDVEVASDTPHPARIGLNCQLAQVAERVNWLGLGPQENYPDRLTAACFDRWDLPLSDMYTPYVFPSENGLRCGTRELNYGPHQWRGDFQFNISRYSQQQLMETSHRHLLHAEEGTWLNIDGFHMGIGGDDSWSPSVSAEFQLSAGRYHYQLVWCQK
Vasopressin V1b receptor, sequence (P47901 whole entry): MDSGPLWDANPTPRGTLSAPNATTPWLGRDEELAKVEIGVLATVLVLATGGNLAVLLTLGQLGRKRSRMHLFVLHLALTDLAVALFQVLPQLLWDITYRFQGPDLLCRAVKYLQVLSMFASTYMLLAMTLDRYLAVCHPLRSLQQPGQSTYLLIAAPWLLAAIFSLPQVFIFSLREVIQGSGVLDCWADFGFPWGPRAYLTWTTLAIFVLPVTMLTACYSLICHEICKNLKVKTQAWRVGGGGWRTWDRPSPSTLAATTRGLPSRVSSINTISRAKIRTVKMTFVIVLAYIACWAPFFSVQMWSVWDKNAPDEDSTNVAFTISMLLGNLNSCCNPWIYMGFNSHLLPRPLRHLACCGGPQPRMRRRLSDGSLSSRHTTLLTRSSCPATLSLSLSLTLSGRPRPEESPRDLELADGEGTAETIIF
Sphingosine 1-phosphate receptor 2, sequence (O95136 whole entry): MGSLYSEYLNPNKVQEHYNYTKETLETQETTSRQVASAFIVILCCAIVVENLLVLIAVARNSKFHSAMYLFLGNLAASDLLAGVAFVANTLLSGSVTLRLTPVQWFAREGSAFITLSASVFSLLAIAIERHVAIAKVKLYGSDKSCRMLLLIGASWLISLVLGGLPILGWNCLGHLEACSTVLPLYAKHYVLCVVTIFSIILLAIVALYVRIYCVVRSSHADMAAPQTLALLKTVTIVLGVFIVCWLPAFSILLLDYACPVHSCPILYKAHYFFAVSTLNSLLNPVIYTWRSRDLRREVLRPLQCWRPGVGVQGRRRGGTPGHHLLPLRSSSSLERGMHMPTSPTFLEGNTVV

On to `COc1cc2c(cc1OC)C1=C(C#N)CCC(=O)N1CC2`, for which the EC50 in assay [1] is 1.33 µM (active).
Consider `C[C@H](CO)N1C[C@H](C)[C@H](CN(C)Cc2ccccc2)OCCCC[C@H](C)Oc2ccc(NC(=O)Nc3ccc(C(F)(F)F)cc3)cc2C1=O`, for which the AC50 in [2] was 4.95 µM (active); in [3], 41.4 µM (active); in [4], 17.6 µM (active); in [5], 26.9 µM (active); in assay [6], 50 µM (active).
For the molecule `COc1cccc(N(CC2CC2)C(=O)N2CCN(c3ccccc3C)CC2)c1`, the IC50 in assay [7] is 20.6 µM (inactive); in assay [8] it was 20.6 µM (inactive); in assay [9], 12.4 µM (inactive); in [10] it was 0.057 µM (active).
Consider `O=C(NN1CCCC1)NS(=O)(=O)c1ccc(Cl)cc1` [GLYCLOPYRAMIDE], for which the IC50 in assay [11] is > 33.3 µM (inactive); in assay [12] it was 14.9 µM (inactive).
Take `COc1ccc(C(=O)/N=c2\sc3ccccc3n2C)cc1`: the EC50 in [13] and in assay [14] was > 67.5 µM (inactive) throughout.
With `COc1ccc(/C=C2/C(=O)NC(=O)N(Cc3ccco3)C2=O)cc1`, the IC50 is 23.5 µM (active) in assay [15] and 1.79 µM (active) in assay [16].
`O=C(/C=C/c1ccc(Br)cc1)N1CCN(Cc2ccccc2)CC1`: the IC50 is > 80 µM (inactive) in assay [17] and 0.0028 µM (active) in assay [18].
`CC(C)(C)NC(=O)CN(c1ccccc1Cl)S(C)(=O)=O`: in assay [19], the EC50 is > 30 µM (inactive).

As usually defined, the EC50 is the concentration at which the effect is half-maximal. A word on the AC50: it is the midpoint of the concentration-response curve, whichever way the signal moves. One may read the IC50 as the midpoint of a concentration-inhibition curve.
